Tests used:
[1] = system: isolate of guinea-pig ileum; test: Anti-histamine activity in an isolate of guinea-pig ileum, suspended in a Tyrode bath at 32°-35° C.; conditions: for IC50: Cavia porcellus, isolated guinea-pig ileum, Tyrode bath, 32°-35° C., read-out: anti-histamine activity, ED50
Protocol: The anti-histamine activity was tested in an isolate of guinea-pig ileum, suspended in a Tyrode bath at 32°-35° C. according to a protocol described by R. A. Turner (Screening Methods in Pharmacology, Academic Press, 1965, p. 43).

[2] = Activity on the blood stream (vasoactive, antiarrhythmic, hypotensor); conditions: no test described
[3] = system: isolate of guinea-pig ileum; conditions: background statement on the non-fluorine analog; cited from earlier work

IC50 [1] [nM] | Compound | antihistaminic effect compared with non-fluorine analog (in words) ([1]; versus non-fluorine analog (Spanish Pat. No. 514 340)) | activity on the blood stream (in words) [2] | anti-histaminic effect (in words) [3]
150 | Fc1ccc(C(c2ccc(F)cc2)N2CCN(CCCC3(c4ccccc4)OCCO3)CC2)cc1 [Example 1, 1-(4,4'-difluorobenzhydryl)-4-(2-phenyl-1,3-dioxolane-2-propyl)piperazine] | higher than that of its non-fluorine analog | strong activity on the blood stream | 
350 | c1ccc(C(c2ccccc2)N2CCN(CCCC3(c4ccccc4)OCCO3)CC2)cc1 [Spanish Pat. 514 340, reference compound] |  |  | unsatisfactory

Reference: patent US4603134A, “Piperazine derivative and pharmaceutical composition containing the same” (Ferrer International, S.A., priority 1984, dated 1986)
